According to PubChem BioAssay AID1963423 (Molecular Pharmacology Branch, DTP, NCI, 2024):

Tested on: 439559-082-T-J2-PDC complex spheroid growth
Assay: Anticancer human tumor 439559-082-T-J2-PDC patient-derived colon adenocarcinoma cell line growth inhibition [Asc]
Conditions: for IC50: curve of first compound; for viability, T/C: stronger effect = lower value; active means viability on the fitted dose curve at most 10% of control; inactive means the rest
Procedure, shortened: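 Stromal components (HUVEC and hMSC) are co-assembled with the cancer cells into multicellular spheroids. Drugs are then added singly or paired, at concentrations falling by half-log increments from a clinically achievable maximum, capped at 10 microM without known Cmax.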

[1] = second compound 0.1 µM, first compound 0.00316 µM
[2] = second compound 0.1 µM, first compound 0.01 µM
[3] = second compound 0.1 µM, first compound 0.0316 µM
[4] = second compound 0.1 µM, first compound 0.1 µM
[5] = second compound 0.1 µM, first compound 0.316 µM
[6] = second compound 0.1 µM, first compound 1 µM
[7] = second compound 0.316 µM, first compound 0.00316 µM
[8] = second compound 0.316 µM, first compound 0.01 µM
[9] = second compound 0.316 µM, first compound 0.0316 µM
[10] = second compound 0.316 µM, first compound 0.1 µM
[11] = second compound 0.316 µM, first compound 0.316 µM
[12] = second compound 0.316 µM, first compound 1 µM
[13] = second compound 1 µM, first compound 0.00316 µM
[14] = second compound 1 µM, first compound 0.01 µM
[15] = second compound 1 µM, first compound 0.0316 µM
[16] = second compound 1 µM, first compound 0.1 µM
[17] = second compound 1 µM, first compound 0.316 µM
[18] = second compound 1 µM, first compound 1 µM
[19] = second compound 3.16 µM, first compound 0.00316 µM
[20] = second compound 3.16 µM, first compound 0.01 µM
[21] = second compound 3.16 µM, first compound 0.0316 µM
[22] = second compound 3.16 µM, first compound 0.1 µM
[23] = second compound 3.16 µM, first compound 0.316 µM
[24] = second compound 3.16 µM, first compound 1 µM
[25] = second compound 10 µM, first compound 0.00316 µM
[26] = second compound 10 µM, first compound 0.01 µM
[27] = second compound 10 µM, first compound 0.0316 µM
[28] = second compound 10 µM, first compound 0.1 µM
[29] = second compound 10 µM, first compound 0.316 µM
[30] = second compound 10 µM, first compound 1 µM
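Further: spheroids exposed to agents for 7 days starting day 3 after seeding.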
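Wherever viability, T/C is given: percent of DMSO vehicle control viability with 100% = vehicle.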

CCN1CCN(Cc2ccc(Nc3ncc(F)c(-c4cc(F)c5nc(C)n(C(C)C)c5c4)n3)nc2)CC1 + Cc1c(S(C)(=O)=O)c(-c2cc(F)cc(N3CCN(c4ccc(NS(=O)(=O)c5ccc(NC(CCN6CCC(C(=O)OCCCP(=O)(O)O)CC6)CSc6ccccc6)c(S(=O)(=O)C(F)(F)F)c5)cc4)CC3)c2)c(-c2ccc(Cl)cc2)n1C(C)C
> 1000 nM: IC50 (second compound 0.1 µM) | IC50 (second compound 0.316 µM) | IC50 (second compound 1 µM) | IC50 (second compound 3.16 µM) | IC50 (second compound 10 µM)
inactive: viability, T/C [1] 93.5% | viability, T/C [2] 107% | viability, T/C [3] 94.2% | viability, T/C [4] 85.3% | viability, T/C [5] 92.8% | viability, T/C [6] 80.5% | viability, T/C [7] 101% | viability, T/C [8] 102% | viability, T/C [9] 103% | viability, T/C [10] 78.5% | viability, T/C [11] 84.2% | viability, T/C [12] 73.4% | viability, T/C [13] 96.5% | viability, T/C [14] 93.5% | viability, T/C [15] 94.3% | viability, T/C [16] 80.5% | viability, T/C [17] 80% | viability, T/C [18] 70% | viability, T/C [19] 85.1% | viability, T/C [20] 92.5% | viability, T/C [21] 98.9% | viability, T/C [22] 72.4% | viability, T/C [23] 69.4% | viability, T/C [24] 68.6% | viability, T/C [25] 82.4% | viability, T/C [26] 81.7% | viability, T/C [27] 83.2% | viability, T/C [28] 63.5% | viability, T/C [29] 61.2% | viability, T/C [30] 50.1%

NC(=O)C(=Cn1cnc(-c2cc(C(F)(F)F)cc(C(F)(F)F)c2)n1)c1cncnc1 + Cc1c(S(C)(=O)=O)c(-c2cc(F)cc(N3CCN(c4ccc(NS(=O)(=O)c5ccc(NC(CCN6CCC(C(=O)OCCCP(=O)(O)O)CC6)CSc6ccccc6)c(S(=O)(=O)C(F)(F)F)c5)cc4)CC3)c2)c(-c2ccc(Cl)cc2)n1C(C)C
inactive: viability, T/C (second compound 0.1 µM, first compound 0.000949 µM) 92% | viability, T/C (second compound 0.1 µM, first compound 0.003 µM) 115% | viability, T/C (second compound 0.1 µM, first compound 0.00949 µM) 92.9% | viability, T/C (second compound 0.1 µM, first compound 0.03 µM) 87% | viability, T/C (second compound 0.1 µM, first compound 0.0949 µM) 82.7% | viability, T/C (second compound 0.1 µM, first compound 0.3 µM) 82.5% | viability, T/C (second compound 0.316 µM, first compound 0.000949 µM) 100% | viability, T/C (second compound 0.316 µM, first compound 0.003 µM) 101% | viability, T/C (second compound 0.316 µM, first compound 0.00949 µM) 94.9% | viability, T/C (second compound 0.316 µM, first compound 0.03 µM) 82.8% | viability, T/C (second compound 0.316 µM, first compound 0.0949 µM) 84.2% | viability, T/C (second compound 0.316 µM, first compound 0.3 µM) 75.5% | viability, T/C (second compound 1 µM, first compound 0.000949 µM) 92.8% | viability, T/C (second compound 1 µM, first compound 0.003 µM) 98.2% | viability, T/C (second compound 1 µM, first compound 0.00949 µM) 91.1% | viability, T/C (second compound 1 µM, first compound 0.03 µM) 78% | viability, T/C (second compound 1 µM, first compound 0.0949 µM) 75.7% | viability, T/C (second compound 1 µM, first compound 0.3 µM) 67.4% | viability, T/C (second compound 3.16 µM, first compound 0.000949 µM) 87% | viability, T/C (second compound 3.16 µM, first compound 0.003 µM) 93.8% | viability, T/C (second compound 3.16 µM, first compound 0.00949 µM) 94.7% | viability, T/C (second compound 3.16 µM, first compound 0.03 µM) 75.3% | viability, T/C (second compound 3.16 µM, first compound 0.0949 µM) 69.4% | viability, T/C (second compound 3.16 µM, first compound 0.3 µM) 64.5% | viability, T/C (second compound 10 µM, first compound 0.000949 µM) 76.3% | viability, T/C (second compound 10 µM, first compound 0.003 µM) 73.6% | viability, T/C (second compound 10 µM, first compound 0.00949 µM) 75% | viability, T/C (second compound 10 µM, first compound 0.03 µM) 63.8% | viability, T/C (second compound 10 µM, first compound 0.0949 µM) 54.8% | viability, T/C (second compound 10 µM, first compound 0.3 µM) 56.6%
> 300 nM: IC50 (second compound 0.1 µM) | IC50 (second compound 0.316 µM) | IC50 (second compound 1 µM) | IC50 (second compound 3.16 µM) | IC50 (second compound 10 µM)

O=C(c1ccc(F)c(F)c1Nc1ccc(I)cc1F)N1CC(O)([C@@H]2CCCCN2)C1 + Cc1c(S(C)(=O)=O)c(-c2cc(F)cc(N3CCN(c4ccc(NS(=O)(=O)c5ccc(NC(CCN6CCC(C(=O)OCCCP(=O)(O)O)CC6)CSc6ccccc6)c(S(=O)(=O)C(F)(F)F)c5)cc4)CC3)c2)c(-c2ccc(Cl)cc2)n1C(C)C
active: viability, T/C [24] 4.98% | viability, T/C [30] 2.9%
201 nM: IC50 (second compound 0.1 µM)
inactive: viability, T/C [1] 96.7% | viability, T/C [2] 105% | viability, T/C [3] 76% | viability, T/C [4] 57.5% | viability, T/C [5] 47.7% | viability, T/C [6] 16.9% | viability, T/C [7] 96% | viability, T/C [8] 103% | viability, T/C [9] 79.8% | viability, T/C [10] 59.5% | viability, T/C [11] 42.6% | viability, T/C [12] 11.5% | viability, T/C [13] 88.8% | viability, T/C [14] 96.1% | viability, T/C [15] 84.6% | viability, T/C [16] 48.5% | viability, T/C [17] 38.2% | viability, T/C [18] 7.87% | viability, T/C [19] 91.6% | viability, T/C [20] 90.9% | viability, T/C [21] 76.3% | viability, T/C [22] 45.4% | viability, T/C [23] 29.9% | viability, T/C [25] 76.5% | viability, T/C [26] 68.7% | viability, T/C [27] 68.3% | viability, T/C [28] 32.6% | viability, T/C [29] 19.1%
141 nM: IC50 (second compound 1 µM)
104 nM: IC50 (second compound 3.16 µM)
56.6 nM: IC50 (second compound 10 µM)
188 nM: IC50 (second compound 0.316 µM)
